Source: ChEMBL document CHEMBL4052789, “Essential structure of orexin 1 receptor antagonist YNT-707, Part I: Role of the 4,5-epoxy ring for binding with orexin 1 receptor” (Bioorg Med Chem Lett, 2017)
The source made the active and inactive calls. No cut-off for these calls is given here.

What was measured:
Orexin receptor type 2 = target: T1, Orexin receptor type 2 (Homo sapiens, UniProt O43614); experiment: Antagonist activity at human OX2R expressed in CHOK1 cells assessed as inhibition of orexin A-induced intracellular Ca2+ release preincubated for 15 mins followed by orexin A addition by Fura 2-AM dye based fluorescence assay; format: functional, cell-based
T1 sequence (O43614 whole entry): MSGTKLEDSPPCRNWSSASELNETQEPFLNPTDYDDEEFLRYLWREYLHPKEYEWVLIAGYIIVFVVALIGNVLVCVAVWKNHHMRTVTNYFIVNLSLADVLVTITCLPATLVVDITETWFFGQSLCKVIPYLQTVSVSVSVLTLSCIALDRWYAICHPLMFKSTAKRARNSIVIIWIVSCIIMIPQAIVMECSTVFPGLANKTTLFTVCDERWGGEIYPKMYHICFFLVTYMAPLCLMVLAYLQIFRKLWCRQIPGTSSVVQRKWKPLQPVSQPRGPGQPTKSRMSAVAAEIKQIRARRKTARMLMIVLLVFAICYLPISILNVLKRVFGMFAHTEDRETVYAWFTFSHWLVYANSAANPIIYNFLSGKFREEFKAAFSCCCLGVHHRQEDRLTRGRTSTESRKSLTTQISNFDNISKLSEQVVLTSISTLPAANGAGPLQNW

[1] = target: T2, Orexin/Hypocretin receptor type 1 (Homo sapiens, UniProt O43613); experiment: (§1) Antagonist activity at human OX1R expressed in CHOK1 cells assessed as inhibition of orexin A-induced intracellular Ca2+ release preincubated for 15 mins followed by orexin A addition by Fura 2-AM dye based fluorescence assay; format: functional, cell-based
T2 sequence (O43613 whole entry): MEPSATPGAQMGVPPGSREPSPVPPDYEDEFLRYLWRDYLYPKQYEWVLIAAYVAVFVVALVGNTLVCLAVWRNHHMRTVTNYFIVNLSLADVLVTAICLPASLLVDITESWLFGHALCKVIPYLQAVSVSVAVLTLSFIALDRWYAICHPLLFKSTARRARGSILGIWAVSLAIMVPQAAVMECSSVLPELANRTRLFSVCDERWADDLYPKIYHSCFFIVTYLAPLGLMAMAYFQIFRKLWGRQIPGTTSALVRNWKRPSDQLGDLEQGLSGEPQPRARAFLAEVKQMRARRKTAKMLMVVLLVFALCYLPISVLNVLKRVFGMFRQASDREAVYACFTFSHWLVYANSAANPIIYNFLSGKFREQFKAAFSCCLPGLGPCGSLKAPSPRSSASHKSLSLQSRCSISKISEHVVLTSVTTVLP

Homo sapiens = species on record: Homo sapiens; experiment: Selectivity ratio of Ki for human OX2R to Ki for human OX1R
[2] = target: T3, Orexin/Hypocretin receptor type 1 (Homo sapiens) (UniProt O43613); experiment: as §1; format: functional, cell-based
T3 sequence (whole entry): T2 sequence (O43613 whole entry)

Row | SMILES | IC50 (Orexin receptor type 2) | Ki [1] | other results
1 | COc1ccc2c3c1O[C@H]1[C@H](N(C)C(=O)/C=C/c4ccoc4)CC[C@@]4(O)[C@@H](C2)N(S(=O)(=O)c2ccccc2)CC[C@]314 | > 10000 nM |  | 
2 | COc1ccc2c3c1O[C@H]1[C@@H](N(C)C(=O)/C=C/c4ccoc4)CC[C@@]4(O)[C@@H](C2)N(S(=O)(=O)c2ccccc2)CC[C@]314 | > 10000 nM | 849 nM | 
3 | COc1ccc2c(c1)[C@]13CCN(S(=O)(=O)c4ccccc4)[C@H](C2)[C@]1(O)CC[C@H](N(C)C(=O)/C=C/c1ccoc1)C3 |  | 11.2 nM | Ki (Orexin receptor type 2): 294 nM; Ratio Ki (Homo sapiens): 26.1
4 | CN(C(=O)/C=C/c1ccoc1)[C@@H]1CC[C@@]2(O)[C@H]3Cc4ccc(OCc5ccccc5)c5c4[C@@]2(CCN3S(=O)(=O)c2ccccc2)[C@H]1O5 |  |  | inhibition [2]: inactive
5 | COc1ccc2c(c1)[C@]13CCN(S(=O)(=O)c4ccccc4)[C@H](C2)[C@]1(O)CC[C@@H](N(C)C(=O)/C=C/c1ccoc1)C3 | > 10000 nM | 31.6 nM | 
6 | CN(C(=O)/C=C/c1ccoc1)[C@@H]1CC[C@@]2(O)[C@H]3Cc4cccc5c4[C@@]2(CCN3S(=O)(=O)c2ccccc2)[C@H]1O5 | ≥ 10000 nM |  | IC50 [1]: 1910 nM
